Data on 14 compounds can be found in ChEMBL document CHEMBL3352751, “7,9-Diaryl-1,6,8-trioxaspiro[4.5]dec-3-en-2-ones: readily accessible and highly potent anticancer compounds” (Bioorg Med Chem Lett, 2014).

Converted amounts (≈) assume the structure as drawn.

By IC50 is commonly meant the concentration that gives 50% inhibition.

Assay [1] can be described thus: Anticancer activity against human NMC-797 cells after 48 hrs by viability assay. Format: functional, cell-based. As to conditions: NMC-797, 48 h.
A short description of assay [2]: Anticancer activity against human MJ cells after 48 hrs by viability assay. Format: functional, cell-based.
The test system of assay [3] is Bacillus subtilis. The experiment in a line: Antimicrobial activity against Bacillus subtilis Marburg ATCC 6051 assessed as growth inhibition after 20 hrs by two-fold microdilution method. Particulars: Marburg ATCC 6051, 20 h. It is filed as functional, organism-based. On the technique in general: Broth dilution looks for growth in wells or tubes with falling amounts of substance.

Assay [4] concerns Escherichia coli. The experiment in a line: Antimicrobial activity against Escherichia coli K-12 ATCC 25404 assessed as growth inhibition after 20 hrs by two-fold microdilution method. Format: functional, organism-based. Particulars: K-12 ATCC 25404, 20 h.
Assay [5] concerns Mycolicibacterium smegmatis. The experiment in a line: Antimicrobial activity against Mycobacterium smegmatis strain MC2 155 ATCC 700084 assessed as growth inhibition after 20 hrs by two-fold microdilution method. Particulars: MC2 155 ATCC 700084, 20 h. It is filed as functional, organism-based.

Turning to `CC1[C@@H](c2cccc([N+](=O)[O-])c2)O[C@@H](c2cccc([N+](=O)[O-])c2)O[C@@]12C=CC(=O)O2` (mixture of isomers), the concentration for half-maximal inhibition (IC50) in assay [1] was 12 µM; in assay [2] it was more than 20 µM.
In the case of `O=C1C=C[C@]2(C[C@@H](c3ccccc3[N+](=O)[O-])O[C@@H](c3ccccc3[N+](=O)[O-])O2)O1` (racemic), the IC50 in assay [1] amounted to 0.064 µM; in assay [2], 0.17 µM.
For `O=C1C=C[C@]2(C[C@@H](c3ccc([N+](=O)[O-])cc3)O[C@@H](c3ccc([N+](=O)[O-])cc3)O2)O1` (racemic) the same measures were 0.026 µM and 0.19 µM.
`O=C1C=C[C@]2(C[C@@H](c3cccc([N+](=O)[O-])c3)O[C@@H](c3cccc([N+](=O)[O-])c3)O2)O1` (racemic): the concentration for half-maximal inhibition (IC50) in assay [1] was 0.047 µM; in assay [2] it was 0.17 µM; in assay [3], 216 µM; in assay [4] it was more than 500 µM; in assay [5], more than 500 µM. Further, the MIC95 was 425 µM (≈ 169 µg/mL) in assay [3], more than 500 µM in assay [4] and more than 500 µM in assay [5].
For `O=C1C=C[C@]2(C[C@@H](c3cccc(C(F)(F)F)c3)O[C@@H](c3cccc(C(F)(F)F)c3)O2)O1` (racemic), the values for the concentration for half-maximal inhibition (IC50) in assay [1] and in assay [2] were 0.03 µM and 0.19 µM, respectively.
Consider `O=C1C=C[C@]2(C[C@@H](c3cccc(Cl)c3)O[C@@H](c3cccc(Cl)c3)O2)O1` (racemic), for which the half-maximal inhibitory concentration (IC50) in assay [1] is 0.082 µM; in assay [2] it was 0.26 µM; in assay [3] it was 408 µM; in assay [4], more than 500 µM; in assay [5], more than 500 µM. The MIC95 in assay [3], in assay [4] and in assay [5] was more than 500 µM each time.
For `O=C1C=C[C@]2(C[C@@H](c3ccccc3)O[C@@H](c3ccccc3)O2)O1` (racemic), the IC50 in assay [1] was 0.9 µM; in assay [2] it was 1.7 µM; in assay [3], 224 µM; in assay [4], more than 500 µM; in assay [5] it was more than 500 µM. Further, the MIC95 in assay [3], in assay [4] and in assay [5] was more than 500 µM in each case.
Turning to `O=C1C=C[C@]2(C[C@@H](c3coc([N+](=O)[O-])c3)O[C@@H](c3coc([N+](=O)[O-])c3)O2)O1` (racemic), the results for the half-maximal inhibitory concentration (IC50) in assay [1] and in assay [2] were 0.34 µM and 0.82 µM, respectively.
The corresponding values for `O=C1C=C[C@]2(CCOCO2)O1` (racemic) are 8.6 µM and more than 20 µM.
The corresponding values for `O=C1C=C[C@]2(C[C@@H](c3c(F)c(F)c(F)c(F)c3F)O[C@@H](c3c(F)c(F)c(F)c(F)c3F)O2)O1` (racemic) are 0.57 µM and 2 µM.
On to `O=C1C=C[C@]2(C[C@@H](c3ccc4ccccc4c3[N+](=O)[O-])O[C@@H](c3ccc4ccccc4c3[N+](=O)[O-])O2)O1` (racemic), for which the IC50 in assay [1] was 7.6 µM; in assay [2], more than 20 µM.
`O=C1C=C[C@]2(C[C@@H](c3cccc([N+](=O)[O-])c3)O[C@@H](c3ccccc3)O2)O1` (racemic): the IC50 in assay [1] came out at 0.16 µM; in assay [2] it was 0.37 µM.
`O=C1C=C[C@]2(C[C@@H](c3ccccc3)O[C@@H](c3cccc([N+](=O)[O-])c3)O2)O1` (racemic): the figures for the IC50 in assay [1] and in assay [2] were 0.12 µM and 0.34 µM, respectively.
Take `O=C1CC[C@]2(C[C@@H](c3cccc(C(F)(F)F)c3)O[C@@H](c3cccc(C(F)(F)F)c3)O2)O1` (racemic): the IC50 in assay [1] and in assay [2] was more than 20 µM in each case.
